Laboratory results from ChEMBL document CHEMBL1144023, “Computer-aided discovery of anti-inflammatory thiazolidinones with dual cyclooxygenase/lipoxygenase inhibition” (J Med Chem, 2008).
The source made the active and inactive calls. The rule behind the calls is not given here.

Key:
[1] = target: T1, Prostaglandin G/H synthase 1 (Ovis aries) (UniProt P05979); assay: Inhibition of sheep COX1 at 200 uM in presence of 100 uM arachidonic acid
T1 sequence (whole entry): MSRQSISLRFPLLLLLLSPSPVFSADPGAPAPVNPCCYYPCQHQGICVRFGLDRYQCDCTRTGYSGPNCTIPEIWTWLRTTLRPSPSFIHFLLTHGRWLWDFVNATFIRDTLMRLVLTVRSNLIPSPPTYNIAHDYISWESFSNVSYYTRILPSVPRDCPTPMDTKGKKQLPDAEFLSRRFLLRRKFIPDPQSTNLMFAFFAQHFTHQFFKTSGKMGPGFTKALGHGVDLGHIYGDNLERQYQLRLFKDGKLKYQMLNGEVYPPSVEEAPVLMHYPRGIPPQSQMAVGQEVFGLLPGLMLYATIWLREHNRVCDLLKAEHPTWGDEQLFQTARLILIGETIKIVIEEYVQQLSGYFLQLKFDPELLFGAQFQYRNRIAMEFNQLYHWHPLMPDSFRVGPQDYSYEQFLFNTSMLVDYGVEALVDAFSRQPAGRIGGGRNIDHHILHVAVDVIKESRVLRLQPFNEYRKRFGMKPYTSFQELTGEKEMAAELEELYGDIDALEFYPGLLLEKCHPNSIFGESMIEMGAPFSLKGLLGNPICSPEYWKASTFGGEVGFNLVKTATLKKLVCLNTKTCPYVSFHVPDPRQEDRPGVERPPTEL

Mus musculus = assay: Antiinflammatory activity in AKR mouse assessed as inhibition of carrageenan-induced paw edema at 0.01 mmol/kg; assay type: functional
[2] = target: T2, Seed linoleate 13S-lipoxygenase-1 (Glycine max) (UniProt P08170); assay: Inhibition of soybean LOX at 100 uM
T2 sequence (whole entry): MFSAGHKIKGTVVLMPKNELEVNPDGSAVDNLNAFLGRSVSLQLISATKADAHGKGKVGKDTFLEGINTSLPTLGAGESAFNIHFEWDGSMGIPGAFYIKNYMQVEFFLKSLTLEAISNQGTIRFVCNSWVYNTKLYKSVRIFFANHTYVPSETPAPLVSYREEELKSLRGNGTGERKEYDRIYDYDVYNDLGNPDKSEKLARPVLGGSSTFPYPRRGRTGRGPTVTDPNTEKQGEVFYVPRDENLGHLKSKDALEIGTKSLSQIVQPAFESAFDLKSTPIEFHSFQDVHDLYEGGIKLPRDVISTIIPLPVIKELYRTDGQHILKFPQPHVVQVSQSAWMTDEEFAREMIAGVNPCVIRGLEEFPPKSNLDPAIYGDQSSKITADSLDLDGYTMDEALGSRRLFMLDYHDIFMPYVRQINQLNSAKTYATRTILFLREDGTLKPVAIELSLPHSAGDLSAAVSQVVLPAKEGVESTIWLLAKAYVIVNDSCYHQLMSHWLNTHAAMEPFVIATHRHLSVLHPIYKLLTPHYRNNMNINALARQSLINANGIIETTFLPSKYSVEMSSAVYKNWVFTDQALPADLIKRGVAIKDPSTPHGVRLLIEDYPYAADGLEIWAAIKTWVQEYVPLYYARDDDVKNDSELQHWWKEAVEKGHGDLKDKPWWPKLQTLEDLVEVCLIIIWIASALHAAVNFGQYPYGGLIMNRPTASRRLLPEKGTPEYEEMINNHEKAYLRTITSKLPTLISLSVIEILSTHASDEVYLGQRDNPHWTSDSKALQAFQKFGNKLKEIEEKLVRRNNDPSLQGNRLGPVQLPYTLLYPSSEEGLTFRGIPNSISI

[3] = target: T1, Prostaglandin G/H synthase 1 (Ovis aries); assay: Inhibition of sheep COX1 at 200 uM in presence of 1 uM arachidonic acid
[4] = target: T3, Prostaglandin G/H synthase 2 (Homo sapiens) (UniProt P35354); assay: Inhibition of human recombinant COX2 at 200 uM
T3 sequence (whole entry): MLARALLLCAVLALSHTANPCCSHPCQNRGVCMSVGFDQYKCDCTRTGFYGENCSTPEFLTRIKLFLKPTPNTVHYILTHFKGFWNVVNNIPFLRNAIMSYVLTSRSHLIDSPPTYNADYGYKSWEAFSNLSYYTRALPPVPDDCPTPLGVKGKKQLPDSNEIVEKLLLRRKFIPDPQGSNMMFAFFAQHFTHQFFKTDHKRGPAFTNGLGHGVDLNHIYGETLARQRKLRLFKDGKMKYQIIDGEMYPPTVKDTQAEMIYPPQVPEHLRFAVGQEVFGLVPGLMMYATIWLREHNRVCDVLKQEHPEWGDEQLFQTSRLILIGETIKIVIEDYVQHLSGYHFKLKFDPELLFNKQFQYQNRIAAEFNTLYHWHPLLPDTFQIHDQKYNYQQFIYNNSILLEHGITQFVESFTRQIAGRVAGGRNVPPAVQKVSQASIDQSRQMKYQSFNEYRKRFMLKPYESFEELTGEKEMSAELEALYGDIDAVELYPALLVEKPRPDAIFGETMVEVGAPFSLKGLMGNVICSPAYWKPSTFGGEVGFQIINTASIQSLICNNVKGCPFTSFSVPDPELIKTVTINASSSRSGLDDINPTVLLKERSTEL

[5] = target: T4, Prostaglandin G/H synthase 2 (Homo sapiens, UniProt P35354); assay: Inhibition of human recombinant COX2
T4 sequence (P35354 whole entry): T3 sequence (whole entry)

| SMILES | Activity [1] | inhibition in vivo at 10 µmol/kg (Mus musculus) [%] | inhibition [2] [%] | inhibition [3] [%] | inhibition [4] [%] | IC50 [5] [µM] |
| --- | --- | --- | --- | --- | --- | --- |
| O=C1N/C(=N\c2nccs2)S/C1=C/c1ccc([N+](=O)[O-])cc1 | inactive | 66.1 | 12.5 | 60 | 4.5 |  |
| O=C1N/C(=N\c2nccs2)S/C1=C/c1cccc(Cl)c1 | inactive | 44.5 | 12 | 90 | 30.4 | 262 |
| COc1ccc(/C=C2/S/C(=N/c3nccs3)NC2=O)cc1 | inactive | 51.1 | 22.4 | 8 | 2.5 |  |
| O=C1CSC(Nc2nccs2)=N1 |  |  |  | 0 | 0 |  |
